# Tests used:
# Assay type in all cases: in vivo
# [1] = test system: Italian ryegrass (Lolium multiflorum); assay: Test C pre-/postemergence plant response; conditions: Preemergence
# Method in brief: (§1)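 Visual rating vs untreated controls, 0 (no effect) to 100 (complete control), after 15–25 days in a controlled growth environment. Pre- and postemergence treatments; post plants at 1- to 4-leaf stage, 2–18 cm. Formulation: non-phytotoxic solvent mix plus surfactant.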
# [2] = test system: canarygrass (Phalaris minor); assay: Test C pre-/postemergence plant response; conditions: Preemergence
# Method in brief: as §1
# [3] = test system: pigweed (Amaranthus retroflexus); assay: Test C pre-/postemergence plant response; conditions: Preemergence
# Method in brief: as §1
# [4] = test system: downy bromegrass (Bromus tectorum); assay: Test C pre-/postemergence plant response; conditions: Preemergence
# Method in brief: as §1
# [5] = test system: spring wheat (Triticum aestivum); assay: Test C pre-/postemergence plant response; conditions: Preemergence
# Method in brief: as §1
# [6] = test system: wild mustard (Sinapis arvensis); assay: Test C pre-/postemergence plant response; conditions: Preemergence
# Method in brief: as §1
# [7] = test system: green foxtail (Setaria viridis); assay: Test C pre-/postemergence plant response; conditions: Preemergence
# Method in brief: as §1
# [8] = test system: annual bluegrass (Poa annua); assay: Test C pre-/postemergence plant response; conditions: Preemergence
# Method in brief: as §1
# wild oat (Avena fatua) = assay: Test C pre-/postemergence plant response; conditions: Preemergence
# Method in brief: as §1
# [9] = test system: winter wheat (Triticum aestivum); assay: Test C pre-/postemergence plant response; conditions: Preemergence
# Method in brief: as §1
# [10] = test system: windgrass (Apera spica-venti); assay: Test C pre-/postemergence plant response; conditions: Preemergence
# Method in brief: as §1
# [11] = test system: blackgrass (Alopecurus myosuroides); assay: Test C pre-/postemergence plant response; conditions: Preemergence
# Method in brief: as §1
# [12] = test system: winter barley (Hordeum vulgare); assay: Test C pre-/postemergence plant response; conditions: Preemergence
# Method in brief: as §1
# [13] = test system: canarygrass (Phalaris minor); assay: Test B postemergence plant response; conditions: for Plant response rating, Canarygrass: Postemergence
# Method in brief: (§2)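 Test compounds were applied postemergence to plants 2 to 18 cm tall (1- to 4-leaf stage). After 13 to 15 days in a greenhouse, each species was visually compared with untreated controls and rated 0 (no effect) to 100 (complete control).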
# [14] = test system: chickweed (Stellaria media); assay: Test B postemergence plant response; conditions: for Plant response rating, Chickweed: Postemergence
# Method in brief: as §2
# [15] = test system: windgrass (Apera spica-venti); assay: Test B postemergence plant response; conditions: for Plant response rating, Windgrass: Postemergence
# Method in brief: as §2
# [16] = test system: winter barley (Hordeum vulgare); assay: Test B postemergence plant response; conditions: for Plant response rating, Barley: Postemergence, scale 0 to 100, 0 no effect, 100 complete control
# Method in brief: as §2
# [17] = 8 g ai/ha, scale 0 to 100 (0 no effect, 100 complete control)
# [18] = 16 g ai/ha, scale 0 to 100 (0 no effect, 100 complete control)
# [19] = 31 g ai/ha, scale 0 to 100 (0 no effect, 100 complete control)
# [20] = 62 g ai/ha, scale 0 to 100, 0 no effect, 100 complete control
# [21] = 8 g ai/ha, postemergence, 0-100 scale
# [22] = 31 g ai/ha, scale 0 to 100, 0 no effect, 100 complete control
smiles,measurement,setting,value
Cc1cc(-c2ccc(Cl)cc2)nn1-c1c(OC(=O)C(C)C)cnn(C)c1=O [Compound 34],"Plant response rating, Ryegrass, Italian",[1]; [17],30
same,"Plant response rating, Ryegrass, Italian",[1]; [18],100
same,"Plant response rating, Ryegrass, Italian",[1]; [19],100
same,"Plant response rating, Ryegrass, Italian",[1]; [20],100
same,"Plant response rating, Canarygrass",[2]; [17],0
same,"Plant response rating, Canarygrass",[2]; [18],20
same,"Plant response rating, Canarygrass",[2]; [19],65
same,"Plant response rating, Canarygrass",[2]; [20],100
same,"Plant response rating, Pigweed",[3]; [17],0
same,"Plant response rating, Pigweed",[3]; [18],0
same,"Plant response rating, Pigweed",[3]; [19],0
same,"Plant response rating, Pigweed",[3]; [20],0
same,"Plant response rating, Bromegrass, Downy",[4]; [17],0
same,"Plant response rating, Bromegrass, Downy",[4]; [18],0
same,"Plant response rating, Bromegrass, Downy",[4]; [19],10
same,"Plant response rating, Bromegrass, Downy",[4]; [20],60
same,"Plant response rating, Wheat, Spring",[5]; [17],0
same,"Plant response rating, Wheat, Spring",[5]; [18],0
same,"Plant response rating, Wheat, Spring",[5]; [19],50
same,"Plant response rating, Wheat, Spring",[5]; [20],90
same,"Plant response rating, Mustard, Wild",[6]; [18],0
same,"Plant response rating, Mustard, Wild",[6]; [19],0
same,"Plant response rating, Mustard, Wild",[6]; [20],0
same,"Plant response rating, Foxtail, Green",[7]; [17],30
same,"Plant response rating, Foxtail, Green",[7]; [18],100
same,"Plant response rating, Foxtail, Green",[7]; [19],100
same,"Plant response rating, Foxtail, Green",[7]; [20],100
same,"Plant response rating, Bluegrass",[8]; [17],0
same,"Plant response rating, Bluegrass",[8]; [18],0
same,"Plant response rating, Bluegrass",[8]; [19],0
same,"Plant response rating, Bluegrass",[8]; [20],35
same,"Plant response rating, Oat, Wild",wild oat (Avena fatua); [17],0
same,"Plant response rating, Oat, Wild",wild oat (Avena fatua); [18],0
same,"Plant response rating, Oat, Wild",wild oat (Avena fatua); [19],70
same,"Plant response rating, Oat, Wild",wild oat (Avena fatua); [20],75
same,"Plant response rating, Wheat, Winter",[9]; [17],0
same,"Plant response rating, Wheat, Winter",[9]; [18],10
same,"Plant response rating, Wheat, Winter",[9]; [19],25
same,"Plant response rating, Wheat, Winter",[9]; [20],60
same,"Plant response rating, Windgrass",[10]; [17],0
same,"Plant response rating, Windgrass",[10]; [18],0
same,"Plant response rating, Windgrass",[10]; [19],20
same,"Plant response rating, Windgrass",[10]; [20],60
same,"Plant response rating, Blackgrass",[11]; [17],0
same,"Plant response rating, Blackgrass",[11]; [18],20
same,"Plant response rating, Blackgrass",[11]; [19],75
same,"Plant response rating, Blackgrass",[11]; [20],85
same,"Plant response rating, Barley, Winter",[12]; [17],0
same,"Plant response rating, Barley, Winter",[12]; [18],0
same,"Plant response rating, Barley, Winter",[12]; [19],10
same,"Plant response rating, Barley, Winter",[12]; [20],35
same,Canarygrass plant response rating,[13]; [21],10
same,"Plant response rating, Canarygrass","[13]; 16 g ai/ha, scale 0 to 100",10
same,"Plant response rating, Canarygrass",[13]; [22],20
same,"Plant response rating, Canarygrass",[13]; [20],20
same,Chickweed plant response rating,[14]; [21],0
same,"Plant response rating, Chickweed","[14]; 16 g ai/ha, scale 0 to 100",0
same,"Plant response rating, Chickweed",[14]; [22],0
same,"Plant response rating, Chickweed",[14]; [20],0
same,Windgrass plant response rating,[15]; [21],0
same,"Plant response rating, Windgrass","[15]; 16 g ai/ha, scale 0 to 100",10
same,"Plant response rating, Windgrass",[15]; [20],80
same,Barley plant response rating,[16]; [21],0
same,"Plant response rating, Barley",[16]; 16 g ai/ha,0
same,"Plant response rating, Barley",[16]; 31 g ai/ha,0
same,"Plant response rating, Barley",[16]; 62 g ai/ha,15
